Source: patent US20060234955A1, “Cardiac glycosides to treat cystic fibrosis and other il-8 dependent disorders” (priority 2002, published 2006)

What was measured:
cat [1] = assay: LD50, intravenous administration to the cat (Merck Index)
cat [2] = conditions: intravenous administration, Merck Index; cited from earlier work
NFκB = conditions: 1 μM concentration; variety of cultured cancer cells; cited from earlier work
IL-8 from CFTE cells = assay: Hypersecretion of IL-8 from CFTE cells; conditions: qualitative

SMILES | LD-50-defined toxicity (concentration) (cat [1]; as restated) | concentration corresponding to LD50 (cat [1]; assuming body weight is all water and uniform distribution) | solubility (Solubility in ethanol) | LD50 (cat [2]) | TNFα-dependent activation of NFκB (NFκB) | hypersecretion of IL-8 from CFTE cells (IL-8 from CFTE cells)
CO[C@H]1C[C@H](O[C@H]2CC[C@@]3(C)[C@H](CC[C@@H]4[C@@H]3CC[C@]3(C)[C@@H](C5=CC(=O)OC5)[C@@H](OC(C)=O)C[C@]43O)C2)O[C@@H](C)[C@@H]1O [Compound I] | ≥ 0.6 µM | 600 nM | soluble in ethanol | 0.3 mg/kg | suppresses | –
CCCn1c(=O)c2[nH]c(C3CCCC3)nc2n(CCC)c1=O [CPX, 1,3-Dipropyl-8-Cyclopentyl xanthine] | – | – | – | – | – | suppressed
